Patent US12240822B2, “Naphthalene isoxazoline compound and application thereof” (SHANDONG C[…] SEA PHARMACEUTICAL TECHNOLOGY CO., LTD., priority 2023, dated 2025)
Converted amounts (≈) assume the structure as drawn. “And” between values parts separate entries of the source, which are not always exact repeats. Equal values may be shown once.

Tests used:
[1] = system: Myzus persicae Sulzer; test: Indoor toxicity test on Myzus persicae Sulzer wingless aphids, insect soaking and leaf soaking method; type: in vivo; parameters: LC50 value of the A4 as fraction of the LC50 value of the C4 / LC50 value of the A4 as fraction of the LC50 value of the B4: unit not given beside the values; settings: for LC50: Myzus persicae Sulzer wingless aphids, 48 h after administration
Procedure: The aphid species was Myzus persicae Sulzer, which was a sensitive population raised indoors in the bioassay room of the Plant Protection Institute of Shandong Academy of Agricultural Sciences. The temperature range was 24-26° C., the humidity range was 60%-80%, and the illumination was L:D=16 h:8 h. Aphids used for tests were wingless aphids.
Test medicaments were prepared into a mother solution with methanol and then diluted with a Tween-80 aqueous solution having a mass concentration of 0.1% in equal proportions. According to effective components, the B4 was set to 6 concentration gradients of 0.5 mg/L, 1 mg/L, 2 mg/L, 4 mg/L, 8 mg/L, and 16 mg/L; the C4 was set to 6 concentration gradients of 0.5 mg/L, 1 mg/L, 2 mg/L, 4 mg/L, 8 mg/L, and 16 mg/L; and the A4 was set to 6 concentration gradients of 0.05 mg/L, 0.1 mg/L, 0.2 mg/L, 0.4 mg/L, 0.8 mg/L, and 1.6 mg/L. A methanol aqueous solution having a volume concentration of 4% was taken as a blank control.
Insects for tests were processed according to an insect soaking method (NY/T 1154.6-2006) and a leaf soaking method (NY/T 1154.14-2008). Each medicament for tests was diluted to the set 6 concentrations for later use. Absorbent paper was placed at the bottom of a disposable plastic cup, a layer of filter paper was laid on the absorbent paper, and 2 mL of distilled water was added to keep moisture for later use. Leaves with aphids were cut into small leaves, each leaf has about 20 wingless aphids, and the leaves with aphids were gently soaked in the liquid medicine with tweezers and then taken out after 10 s, and placed on the absorbent paper and air-dried. The air-dried leaves were placed in the prepared plastic cups which were then covered, and one leaf was placed in each plastic cup. One repetition was performed for each plastic cup, and 4 repetitions were performed for each concentration. The plastic cups were placed in an illumination incubator, and the number of live aphids and the number of dead aphids were recorded 48 h later.
DPS software was used for processing, and the median lethal concentration LC50 and 95% confidence limit of 3 test medicaments on aphids at 48 h were determined.
The logarithm of the medicament concentration (mg/L) was taken as an independent variable X, the probability value of a corrected death rate was taken as a dependent variable Y, and the LC50 value, 95% confidence limit and R2 of a toxicity regression line were computed by DPS software.

[2] = system: Thrips palmi Karny; test: Indoor toxicity test on Thrips palmi Karny adults, liquid tube drug film method with leaf soaking; type: in vivo; parameters: LC90 value of the A4 as fraction of the LC90 value of the C4 / LC90 value of the A4 as fraction of the LC90 value of the B4: unit not given beside the values; settings: for LC50 / LC90: Thrips palmi Karny adults, 48 h after administration
Procedure: Through indoor tests, a liquid tube drug film method improved by a filter paper drug film method was used for evaluating the indoor toxicity effects of three raw drugs on Thrips palmi Karny.
Thrips palmi Karny was raised indoors in the insectary of the Plant Protection Institute of Shandong Academy of Agricultural Sciences.
Culture was performed in an illumination incubator, and raising and observation were performed under the conditions that the temperature was 25.0±2.0° C., the relative humidity was 75±5% and the photoperiod (L/D) was 14 h/10 h.
The insect for tests is an adult of Thrips palmi Karny.
Three test medicaments were prepared into a mother solution with methanol and then diluted with a Tween-80 aqueous solution having a mass concentration of 0.1% in equal proportions, and the concentration was set in equal proportions. • B4 concentration: 0.5, 1, 2, 4, 8, 16 mg/L; • C4 concentration: 25, 12.5, 6.25, 3.125, 1.5625, 0.7813 mg/L; • A4 concentration: 0.1, 0.05, 0.025, 0.0125, 0.00625, 0.003125 mg/L. 3.2.2 Test Repetition
Each processing was repeated 4 times, and 30 insects for tests were used for each repetition.
According to NY/T 1154.8-2007, the liquid tube drug film method improved by the filter paper drug film method was used for processing insects for tests. Medicaments for tests were diluted into 6 concentrations, a 1.5 mL centrifugal tube was filled with each concentration of liquid medicine respectively and allowed to stand for 4 h, then the liquid medicine was poured out, and the centrifugal tube was placed on a test table and air-dried for later use. A fine needle tip was heated with an alcohol lamp, and a small hole with a diameter of about 2-3 mm was formed at the bottom of the air-dried centrifugal tube by heating. One repetition was performed for each tube, and 4 repetitions were performed for each concentration. Leaf soaking: A hole puncher was used for punching fresh cabbage leaves into circular leaves with a diameter of 0.5 cm, and the circular leaves were respectively soaked in each concentration of liquid medicine for 10 s with leaf soaking in clear water as a control. The processed leaves were placed on absorbent paper and air-dried and then clamped with small tweezers into the centrifugal tubes with corresponding liquid medicine concentrations, and one leaf was placed flatly in each tube. Indoor insects for tests: An interface of an insect sucker was sealed with gauze and sleeves an orifice of the processed centrifugal tube, and the hole formed by heating at the bottom of the centrifugal tube was aligned with the insects for tests to enable the insects for tests to be sucked into the centrifugal tube along the airflow. The insects for tests were processed after control, about 30 insects for tests were sucked for each repetition, then a tube cover was covered, and the hole formed by heating was sealed with a sealing film. After related information was marked, the number of live insects and the number of dead insects were recorded 48 h later.
Test results were investigated 48 h after drug post-processing.
The logarithm of the medicament concentration (mg/L) was taken as an independent variable X, the probability value of a corrected death rate was taken as a dependent variable Y, and the LC50 value, LC90 value, 95% confidence limit and R2 of a toxicity regression line were computed by DPS software.

[3] = 0.05 mg/L, 48 h, single repetitions 1-4
[4] = 0.1 mg/L, 48 h, single repetitions 1-4
[5] = 0.5 mg/L, 48 h, single repetitions 1-4
[6] = 1 mg/L, 48 h, single repetitions 1-4
[7] = 2 mg/L, 48 h, single repetitions 1-4
[8] = 4 mg/L, 48 h, single repetitions 1-4
[9] = 8 mg/L, 48 h, single repetitions 1-4
[10] = 16 mg/L, 48 h, single repetitions 1-4

In the case of `CO/N=C/NC(=O)c1ccc(C2=NOC(c3cc(Cl)cc(C(F)(F)F)c3)(C(F)(F)F)C2)c2ccccc12` (stereo not shown) [A4, 4-(5-(3-chloro-5-(trifluoromethyl)phenyl)-5-(trifluoromethyl)-4,5-dihydroisoxazol-3-yl)-N-((methoxylimino)methyl)-1-naphthyl formamide], the Death rate ([1]; 0.05 mg/L, 48 h, Total) is reported as 15.94%, the Death rate [1, 3] is reported as 15.00% and 17.24% and 16.13% and 15.38% and the Death rate ([1]; 0.1 mg/L, 48 h, Total) is reported as 24.96%. For the same molecule, the Death rate [1, 4] was 23.53% and 22.73% and 25.00% and 28.57%, the Death rate ([1]; 0.2 mg/L, 48 h, Total) was 33.73% and the Death rate ([1]; 0.2 mg/L, 48 h, single repetitions 1-4) was 33.33% and 35.71% and 34.29% and 31.58%. For the same molecule, the Death rate ([1]; 0.4 mg/L, 48 h, Total) was 40.78%, the Death rate ([1]; 0.4 mg/L, 48 h, single repetitions 1-4) was 50.00% and 43.48% and 37.50% and 32.14% and the Death rate ([1]; 0.8 mg/L, 48 h, Total) was 63.22%. The Death rate ([1]; 0.8 mg/L, 48 h, single repetitions 1-4) was 61.29% and 67.74% and 60.53% and 63.33%, the Death rate ([1]; 1.6 mg/L, 48 h, Total) was 84.47% and the Death rate ([1]; 1.6 mg/L, 48 h, single repetitions 1-4) was 87.10% and 81.25% and 86.21% and 83.33%. For the same molecule, the LC50 [1] was 0.439 µg/mL (≈ 0.807 µM), the “LC50 value of the A4 as fraction of the LC50 value of the B4” value ([1]; Myzus persicae Sulzer, 48 h) was 14/100 and the “LC50 value of the A4 as fraction of the LC50 value of the C4” value ([1]; Myzus persicae Sulzer, 48 h) was 40/100. The Death rate ([2]; 0.003125 mg/L, 48 h, Total/Average) was 9.97%, the Death rate ([2]; 0.00625 mg/L, 48 h, Total/Average) was 37.74% and the Death rate ([2]; 0.00625 mg/L, 48 h, single repetitions 1-4) was 35.00% and 29.41% and 42.11% and 44.44%. For the same molecule, the Death rate ([2]; 0.0125 mg/L, 48 h, Total/Average) was 61.14%, the Death rate ([2]; 0.0125 mg/L, 48 h, single repetitions 1-4) was 55.00% and 60.00% and 69.57% and the Death rate ([2]; 0.025 mg/L, 48 h, Total/Average) was 80.47%. For the same molecule, the Death rate ([2]; 0.025 mg/L, 48 h, single repetitions 1-4) was 85.19% and 73.91% and 80.95% and 81.82%, the Death rate ([2]; 0.05 mg/L, 48 h, Total/Average) was 91.01% and the Death rate [2, 3] was 85.71% and 91.30% and 94.44% and 92.59%. The Death rate ([2]; 0.1 mg/L, 48 h, Total/Average) was 100.00%, the Death rate [2, 4] was 100.00% and the LC50 [2] was 0.0123 µg/mL (≈ 0.0226 µM). For the same molecule, the LC90 [2] was 0.0705 mg/L (≈ 0.13 µM), the “LC90 value of the A4 as fraction of the LC90 value of the B4” value ([2]; Thrips palmi Karny, 48 h) was 2/1000 and the “LC90 value of the A4 as fraction of the LC90 value of the C4” value ([2]; Thrips palmi Karny, 48 h) was 4/1000.
With `CO/N=C/NC(=O)c1ccc(C2=NOC(c3cc(Cl)cc(Cl)c3)(C(F)(F)F)C2)cc1C` (stereo not shown) [C4, fluxametamide] the Death rate ([1]; 0.5 mg/L, 48 h, Total) was 21.47%, the Death rate [1, 5] was 25.00% and 25.71% and 16.67% and 18.52% and the Death rate ([1]; 1 mg/L, 48 h, Total) was 46.05%. The Death rate [1, 6] was 47.83% and 36.36% and 40.00% and 60.00%, the Death rate ([1]; 2 mg/L, 48 h, Total) was 77.48% and the Death rate [1, 7] was 85.71% and 77.78% and 75.00% and 71.43%. For the same molecule, the Death rate ([1]; 4 mg/L, 48 h, Total) was 85.54%, the Death rate [1, 8] was 89.29% and 88.00% and 87.10% and 77.78% and the Death rate ([1]; 8 mg/L, 48 h, Total) was 96.06%. The Death rate [1, 9] was 91.67% and 92.59% and 100.00%, the Death rate ([1]; 16 mg/L, 48 h, Total) was 97.20% and the Death rate [1, 10] was 93.33% and 100.00% and 95.45%. For the same molecule, the LC50 [1] was 1.1 µg/mL (≈ 2.32 µM), the Death rate ([2]; 0.7813 mg/L, 48 h, Total/Average) was 14.47% and the Death rate ([2]; 1.5625 mg/L, 48 h, Total/Average) was 25.14%. For the same molecule, the Death rate ([2]; 3.125 mg/L, 48 h, Total/Average) was 66.15%, the Death rate ([2]; 3.125 mg/L, 48 h, single repetitions 1-4) was 70.59% and 63.16% and 70.00% and 60.87% and the Death rate ([2]; 6.25 mg/L, 48 h, Total/Average) was 82.01%. For the same molecule, the Death rate ([2]; 6.25 mg/L, 48 h, single repetitions 1-4) was 85.71% and 88.00% and 75.00% and 79.31%, the Death rate ([2]; 12.5 mg/L, 48 h, Total/Average) was 87.89% and the Death rate ([2]; 12.5 mg/L, 48 h, single repetitions 1-4) was 88.89% and 85.19% and 87.50% and 90.00%. For the same molecule, the Death rate ([2]; 25 mg/L, 48 h, Total/Average) was 96.78%, the Death rate ([2]; 25 mg/L, 48 h, single repetitions 1-4) was 95.83% and 95.65% and 100.00% and the LC50 [2] was 2.69 µg/mL (≈ 5.67 µM). The LC90 [2] was 16.1203 mg/L (≈ 34 µM).
With `CO/N=C/NC(=O)c1ccc(C2=NOC(c3cc(Cl)cc(Cl)c3)(C(F)(F)F)C2)c2ccccc12` (stereo not shown) [B4, 4-(5-(3,5-dichlorophenyl)-5-(trifluoromethyl)-4,5-dihydroisoxazol-3-yl)-N-((methoxylimino)methyl)-1-naphthyl formamide] the Death rate ([1]; 0.5 mg/L, 48 h, Total) was 12.01%, the Death rate [1, 5] was 10.00% and 12.50% and 13.04% and the Death rate ([1]; 1 mg/L, 48 h, Total) was 20.73%. For the same molecule, the Death rate [1, 6] was 15.15% and 22.22% and 21.74% and 23.81%, the Death rate ([1]; 2 mg/L, 48 h, Total) was 45.08% and the Death rate ([1]; 4 mg/L, 48 h, Total) was 61.17%. The Death rate [1, 8] was 41.94% and 58.33% and 72.00% and 72.41%, the Death rate ([1]; 8 mg/L, 48 h, Total) was 78.33% and the Death rate [1, 9] was 80.95% and 66.67% and 85.71% and 80.00%. The Death rate ([1]; 16 mg/L, 48 h, Total) was 84.61%, the Death rate [1, 10] was 88.89% and 86.96% and 81.82% and 80.77% and the LC50 [1] was 3.13 µg/mL (≈ 6.14 µM). It also gave a Death rate ([2]; 0.5 mg/L, 48 h, Total/Average) of 18.31%, a Death rate ([2]; 1 mg/L, 48 h, Total/Average) of 30.20% and a Death rate ([2]; 2 mg/L, 48 h, Total/Average) of 33.85%. For the same molecule, the Death rate [2, 7] was 30.77% and 36.84% and 27.78% and 40.00%, the Death rate ([2]; 4 mg/L, 48 h, Total/Average) was 47.56% and the Death rate [2, 8] was 52.00% and 41.38% and 54.55% and 42.31%. The Death rate ([2]; 8 mg/L, 48 h, Total/Average) was 67.00%, the Death rate [2, 9] was 79.17% and 68.00% and 58.33% and 62.50% and the Death rate ([2]; 16 mg/L, 48 h, Total/Average) was 98.68%. For the same molecule, the Death rate [2, 10] was 100.00% and 94.74%, the LC50 [2] was 3.33 µg/mL (≈ 6.53 µM) and the LC90 [2] was 33.9739 mg/L (≈ 66.6 µM).
